Test results as given in ChEMBL document CHEMBL1201862, “PubChem BioAssay data set” (2004).
“And” between values parts separate entries of the source, which are not always exact repeats. Equal values may be shown once. Where a name gives a salt, the structure may show the parent alone. The source made the active and inactive calls.

How the values were obtained:
[1] = target: T1, High affinity choline transporter 1 (Homo sapiens, UniProt Q9GZV3); assay: CHT inhibitors, dose response, cell-based, 5-point CRC, membrane potential dye (AID 504840); format: functional
T1 sequence (Q9GZV3 whole entry): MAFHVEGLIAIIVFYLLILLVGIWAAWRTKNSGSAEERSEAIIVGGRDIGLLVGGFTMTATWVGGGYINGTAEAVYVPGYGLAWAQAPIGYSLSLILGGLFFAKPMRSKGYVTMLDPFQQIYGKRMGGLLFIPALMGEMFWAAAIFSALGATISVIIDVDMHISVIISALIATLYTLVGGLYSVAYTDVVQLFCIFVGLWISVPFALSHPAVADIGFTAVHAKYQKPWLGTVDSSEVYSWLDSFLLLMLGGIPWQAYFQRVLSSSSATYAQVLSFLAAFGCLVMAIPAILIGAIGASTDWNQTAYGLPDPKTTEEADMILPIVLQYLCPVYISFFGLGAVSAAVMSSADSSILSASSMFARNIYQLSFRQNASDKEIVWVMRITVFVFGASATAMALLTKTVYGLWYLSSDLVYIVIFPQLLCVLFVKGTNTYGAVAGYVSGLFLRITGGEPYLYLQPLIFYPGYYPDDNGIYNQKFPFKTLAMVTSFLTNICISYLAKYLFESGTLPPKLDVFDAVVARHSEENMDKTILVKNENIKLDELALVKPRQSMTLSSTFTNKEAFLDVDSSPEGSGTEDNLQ

[2] = target: Cytochrome P450 2C19 (Homo sapiens, UniProt P33261); assay: Cytochrome panel assay with activity outcomes. Panel member name: p450-cyp2c19 Compounds with AC50 equal or less than 10 uM are considered active; format: functional; conditions: read-out: AC50
Chain of Cytochrome P450 2C19 (P33261 whole entry): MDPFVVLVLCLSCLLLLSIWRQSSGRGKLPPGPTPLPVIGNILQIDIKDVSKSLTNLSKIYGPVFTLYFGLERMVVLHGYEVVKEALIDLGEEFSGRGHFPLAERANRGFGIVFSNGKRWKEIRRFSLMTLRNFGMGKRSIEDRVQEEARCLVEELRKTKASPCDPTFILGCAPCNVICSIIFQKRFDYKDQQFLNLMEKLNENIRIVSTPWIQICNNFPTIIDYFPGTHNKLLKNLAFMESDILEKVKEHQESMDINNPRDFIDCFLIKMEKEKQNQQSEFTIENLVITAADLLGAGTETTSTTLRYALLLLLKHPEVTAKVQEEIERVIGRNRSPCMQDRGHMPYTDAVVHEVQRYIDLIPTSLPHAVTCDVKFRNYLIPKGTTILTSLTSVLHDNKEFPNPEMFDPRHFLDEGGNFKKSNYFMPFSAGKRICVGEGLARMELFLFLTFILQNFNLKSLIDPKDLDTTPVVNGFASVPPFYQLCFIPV

[3] = target: Cytochrome P450 2C9 (Homo sapiens, UniProt P11712)
Chain of Cytochrome P450 2C9 (P11712 whole entry): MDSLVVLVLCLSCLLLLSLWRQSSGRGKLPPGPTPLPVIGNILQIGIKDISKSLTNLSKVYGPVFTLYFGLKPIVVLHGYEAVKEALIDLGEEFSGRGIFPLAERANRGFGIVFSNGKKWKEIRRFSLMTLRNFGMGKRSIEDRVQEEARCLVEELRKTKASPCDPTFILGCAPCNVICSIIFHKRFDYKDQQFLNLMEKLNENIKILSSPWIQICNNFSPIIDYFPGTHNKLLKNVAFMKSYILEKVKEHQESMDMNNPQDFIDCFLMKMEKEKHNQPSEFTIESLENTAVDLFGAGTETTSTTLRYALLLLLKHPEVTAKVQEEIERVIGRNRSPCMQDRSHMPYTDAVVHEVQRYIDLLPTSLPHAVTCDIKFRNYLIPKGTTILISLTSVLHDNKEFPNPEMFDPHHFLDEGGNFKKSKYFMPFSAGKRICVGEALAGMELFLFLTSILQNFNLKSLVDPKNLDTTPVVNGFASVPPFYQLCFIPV

[4] = target: Cytochrome P450 2D6 (Homo sapiens, UniProt P10635);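 further: CYP2D6 member of a cytochrome P450 panel assay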
[5] = target: T2, Cytochrome P450 1A2 (Homo sapiens, UniProt P05177);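 further: PubChem cytochrome P450 panel assay, CYP1A2 panel member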
T2 sequence (P05177 whole entry): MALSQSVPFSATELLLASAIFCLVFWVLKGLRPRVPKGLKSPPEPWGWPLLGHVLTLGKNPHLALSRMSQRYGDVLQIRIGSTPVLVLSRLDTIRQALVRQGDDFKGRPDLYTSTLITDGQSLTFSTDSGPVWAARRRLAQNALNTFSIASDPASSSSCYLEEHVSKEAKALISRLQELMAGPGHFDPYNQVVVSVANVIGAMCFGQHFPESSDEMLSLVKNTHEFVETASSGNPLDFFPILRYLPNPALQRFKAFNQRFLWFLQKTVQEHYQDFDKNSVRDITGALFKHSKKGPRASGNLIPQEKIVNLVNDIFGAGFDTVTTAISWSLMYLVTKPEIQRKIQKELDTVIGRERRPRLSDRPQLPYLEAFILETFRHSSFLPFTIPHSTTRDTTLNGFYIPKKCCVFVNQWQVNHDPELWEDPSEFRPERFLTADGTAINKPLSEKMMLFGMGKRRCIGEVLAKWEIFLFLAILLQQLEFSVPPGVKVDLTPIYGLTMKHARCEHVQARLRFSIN

[6] = target: T3, Polyadenylate-binding protein 1 (Homo sapiens, UniProt P11940); assay: PABP1 MLLE–PAM2 interaction inhibitors, dose response, miRNA deadenylation inhibitor project, biochemical, fluorescence polarization, Cy5-PAM2 peptide, secondary (AID 602260); format: functional; conditions: read-out: IC50_Mean
T3 sequence (P11940 whole entry): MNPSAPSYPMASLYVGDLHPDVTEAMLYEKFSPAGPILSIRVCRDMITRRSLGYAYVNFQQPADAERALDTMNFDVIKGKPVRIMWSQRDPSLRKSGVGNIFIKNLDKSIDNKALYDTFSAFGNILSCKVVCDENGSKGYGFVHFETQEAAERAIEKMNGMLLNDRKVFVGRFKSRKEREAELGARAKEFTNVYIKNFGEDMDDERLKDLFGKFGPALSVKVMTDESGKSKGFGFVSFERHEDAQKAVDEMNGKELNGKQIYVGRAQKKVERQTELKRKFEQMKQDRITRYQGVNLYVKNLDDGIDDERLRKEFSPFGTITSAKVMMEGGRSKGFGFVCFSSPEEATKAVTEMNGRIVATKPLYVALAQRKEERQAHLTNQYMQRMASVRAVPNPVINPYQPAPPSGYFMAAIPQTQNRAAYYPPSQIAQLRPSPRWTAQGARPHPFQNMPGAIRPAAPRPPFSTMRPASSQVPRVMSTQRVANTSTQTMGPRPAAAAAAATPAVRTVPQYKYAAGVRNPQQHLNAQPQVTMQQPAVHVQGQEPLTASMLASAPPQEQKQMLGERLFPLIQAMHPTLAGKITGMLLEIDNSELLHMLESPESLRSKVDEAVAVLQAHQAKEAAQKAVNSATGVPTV

[7] = target: T3, Polyadenylate-binding protein 1; assay: PABP1 MLLE–PAM2 binding inhibitor potency, dose response, biochemical, fluorescence polarization, FITC-PAM2 peptide (AID 602259); format: functional; conditions: read-out: IC50_Mean
[8] = target: Cytochrome P450 3A4 (Homo sapiens, UniProt P08684);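 further: CYP3A4 tested as one member of a cytochrome P450 panel screen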
Chain of Cytochrome P450 3A4 (P08684 whole entry): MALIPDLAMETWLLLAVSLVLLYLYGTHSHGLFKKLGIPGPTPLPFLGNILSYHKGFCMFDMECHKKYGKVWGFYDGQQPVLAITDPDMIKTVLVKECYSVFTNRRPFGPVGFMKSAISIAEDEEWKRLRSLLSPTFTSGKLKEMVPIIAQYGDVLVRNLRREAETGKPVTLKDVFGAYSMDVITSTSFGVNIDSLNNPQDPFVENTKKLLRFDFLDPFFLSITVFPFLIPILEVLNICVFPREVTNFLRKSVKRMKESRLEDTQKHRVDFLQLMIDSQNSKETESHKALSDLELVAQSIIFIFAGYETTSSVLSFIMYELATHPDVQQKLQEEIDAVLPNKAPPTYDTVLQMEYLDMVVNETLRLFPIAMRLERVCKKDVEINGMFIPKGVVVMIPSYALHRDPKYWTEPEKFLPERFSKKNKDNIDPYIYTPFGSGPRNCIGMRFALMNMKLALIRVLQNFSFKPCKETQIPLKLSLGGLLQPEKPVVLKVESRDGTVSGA

[9] = Luminescence Cell-Based Dose Confirmation HTS to Identify Activators of 5'UTR Stem-Loop Driven Alpha-Synuclein mRNA Translation in H4 Neuroglioblastoma Cells. [Related pubchem assays: 1829 (Project Summary), 1814 (Primary HTS)]; format: functional
[10] = Luminescence Cell-Based Dose Response HTS to Identify Activators of Luciferase Translation or Activity in H4 […] Cells. [Related pubchem assays: 1829 (Project Summary), 1814 (Primary HTS)]; format: functional
[11] = test system: H4; assay: Luminescence Cell-Based Dose Response HTS to Identify Activators of 5'UTR Stem-Loop Driven Prion Protein mRNA Translation in H4 Neuroglioblastoma Cells. [Related pubchem assays: 1829 (Project Summary), 1814 (Primary HTS)]; format: functional; conditions: Homo sapiens
[12] = target: T4, Fatty acid synthase (Homo sapiens, UniProt P49327); assay: FAS thioesterase domain inhibitors, dose response, biochemical, endpoint fluorescence intensity, uHTS hits (AID 624327); format: functional;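 further: fluorescence from hydrolysis of an O-methyl fluorescein acyl ester substrate by the enzyme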
T4 sequence (P49327 whole entry, the tested form may be a part): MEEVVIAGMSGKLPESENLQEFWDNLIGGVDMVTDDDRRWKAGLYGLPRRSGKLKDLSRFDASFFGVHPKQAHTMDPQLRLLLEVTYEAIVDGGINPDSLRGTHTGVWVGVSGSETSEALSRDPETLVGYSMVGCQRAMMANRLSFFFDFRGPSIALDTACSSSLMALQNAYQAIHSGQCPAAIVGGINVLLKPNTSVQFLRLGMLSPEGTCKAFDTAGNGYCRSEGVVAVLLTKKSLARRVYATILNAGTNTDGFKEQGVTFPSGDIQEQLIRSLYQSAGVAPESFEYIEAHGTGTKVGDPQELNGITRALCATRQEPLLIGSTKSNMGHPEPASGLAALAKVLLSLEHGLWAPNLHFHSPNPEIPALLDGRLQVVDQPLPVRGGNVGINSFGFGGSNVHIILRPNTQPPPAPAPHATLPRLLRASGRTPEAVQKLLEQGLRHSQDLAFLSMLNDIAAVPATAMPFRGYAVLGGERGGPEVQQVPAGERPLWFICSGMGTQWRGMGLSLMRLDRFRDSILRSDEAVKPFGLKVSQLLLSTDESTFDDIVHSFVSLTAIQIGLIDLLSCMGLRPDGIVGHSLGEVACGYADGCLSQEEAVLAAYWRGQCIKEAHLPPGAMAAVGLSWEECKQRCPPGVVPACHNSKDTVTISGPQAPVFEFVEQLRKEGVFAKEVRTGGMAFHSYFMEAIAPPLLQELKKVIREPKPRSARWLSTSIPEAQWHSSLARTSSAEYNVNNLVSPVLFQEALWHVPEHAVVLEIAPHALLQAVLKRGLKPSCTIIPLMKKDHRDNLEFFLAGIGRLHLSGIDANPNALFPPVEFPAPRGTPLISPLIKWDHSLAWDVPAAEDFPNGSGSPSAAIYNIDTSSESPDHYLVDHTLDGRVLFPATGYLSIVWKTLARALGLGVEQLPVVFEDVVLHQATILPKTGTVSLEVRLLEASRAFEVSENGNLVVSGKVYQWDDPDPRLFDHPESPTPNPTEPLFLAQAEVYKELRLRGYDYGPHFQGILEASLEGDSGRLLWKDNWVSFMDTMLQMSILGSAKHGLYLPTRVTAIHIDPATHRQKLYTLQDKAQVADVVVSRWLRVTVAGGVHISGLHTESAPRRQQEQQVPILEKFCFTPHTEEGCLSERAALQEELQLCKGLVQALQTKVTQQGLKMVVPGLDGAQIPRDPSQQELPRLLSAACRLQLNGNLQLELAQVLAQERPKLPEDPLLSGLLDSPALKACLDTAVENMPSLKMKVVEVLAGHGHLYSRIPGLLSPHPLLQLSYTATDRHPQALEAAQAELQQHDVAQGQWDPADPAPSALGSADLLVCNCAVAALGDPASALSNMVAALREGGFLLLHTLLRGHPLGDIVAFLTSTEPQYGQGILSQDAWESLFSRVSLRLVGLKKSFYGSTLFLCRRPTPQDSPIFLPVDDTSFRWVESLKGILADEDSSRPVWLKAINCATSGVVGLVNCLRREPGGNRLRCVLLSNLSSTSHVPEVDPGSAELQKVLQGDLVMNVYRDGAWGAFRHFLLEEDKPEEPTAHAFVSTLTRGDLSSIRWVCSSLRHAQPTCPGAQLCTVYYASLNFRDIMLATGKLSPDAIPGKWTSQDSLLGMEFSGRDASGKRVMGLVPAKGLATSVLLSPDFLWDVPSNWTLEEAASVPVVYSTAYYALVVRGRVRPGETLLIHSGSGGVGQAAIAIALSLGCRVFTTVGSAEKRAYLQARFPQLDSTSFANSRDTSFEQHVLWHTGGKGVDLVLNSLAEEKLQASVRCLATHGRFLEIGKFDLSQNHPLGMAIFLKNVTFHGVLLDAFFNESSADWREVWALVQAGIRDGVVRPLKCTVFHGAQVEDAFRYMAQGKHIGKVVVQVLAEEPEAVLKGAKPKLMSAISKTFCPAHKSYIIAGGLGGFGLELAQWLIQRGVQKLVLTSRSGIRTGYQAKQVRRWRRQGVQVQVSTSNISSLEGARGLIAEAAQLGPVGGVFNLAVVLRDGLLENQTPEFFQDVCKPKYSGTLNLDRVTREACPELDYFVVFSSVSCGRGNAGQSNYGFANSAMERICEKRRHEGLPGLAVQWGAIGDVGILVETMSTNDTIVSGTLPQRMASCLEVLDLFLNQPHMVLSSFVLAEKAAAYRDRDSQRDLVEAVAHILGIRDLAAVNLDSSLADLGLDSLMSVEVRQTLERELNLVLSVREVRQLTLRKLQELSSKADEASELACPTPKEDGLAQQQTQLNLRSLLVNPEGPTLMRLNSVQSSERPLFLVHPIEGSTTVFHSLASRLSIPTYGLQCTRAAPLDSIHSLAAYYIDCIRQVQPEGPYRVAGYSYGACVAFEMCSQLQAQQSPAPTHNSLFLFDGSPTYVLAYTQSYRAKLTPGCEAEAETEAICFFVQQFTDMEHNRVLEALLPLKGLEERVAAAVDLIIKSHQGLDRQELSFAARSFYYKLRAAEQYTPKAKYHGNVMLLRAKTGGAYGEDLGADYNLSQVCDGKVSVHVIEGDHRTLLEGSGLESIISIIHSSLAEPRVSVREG

[13] = target: T4, Fatty acid synthase; assay: FAS thioesterase domain inhibitors, dose response, biochemical, kinetic fluorescence intensity (AID 624326); format: functional;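 further: rate of fluorescence rise from hydrolysis of a fluorogenic O-methyl fluorescein ester substrate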
[14] = test system: P388/ADR; assay: cells; format: functional; conditions: Mus musculus
[15] = test system: SN12K1; assay: cells; format: functional; conditions: Homo sapiens
[16] = test system: P388; assay: cells; format: functional; conditions: Mus musculus
[17] = target: Paired box protein Pax-8 (Homo sapiens, UniProt Q06710); assay: inhibitors of PAX8-driven TPO luciferase reporter, dose response, RMG-I cells, cherry-pick (AID 687027); format: functional, cell-based;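 further: luciferase reporter driven by Pax8 target thyroperoxidase promoter measured by SteadyGlo luminescence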
Chain of Paired box protein Pax-8 (Q06710 whole entry): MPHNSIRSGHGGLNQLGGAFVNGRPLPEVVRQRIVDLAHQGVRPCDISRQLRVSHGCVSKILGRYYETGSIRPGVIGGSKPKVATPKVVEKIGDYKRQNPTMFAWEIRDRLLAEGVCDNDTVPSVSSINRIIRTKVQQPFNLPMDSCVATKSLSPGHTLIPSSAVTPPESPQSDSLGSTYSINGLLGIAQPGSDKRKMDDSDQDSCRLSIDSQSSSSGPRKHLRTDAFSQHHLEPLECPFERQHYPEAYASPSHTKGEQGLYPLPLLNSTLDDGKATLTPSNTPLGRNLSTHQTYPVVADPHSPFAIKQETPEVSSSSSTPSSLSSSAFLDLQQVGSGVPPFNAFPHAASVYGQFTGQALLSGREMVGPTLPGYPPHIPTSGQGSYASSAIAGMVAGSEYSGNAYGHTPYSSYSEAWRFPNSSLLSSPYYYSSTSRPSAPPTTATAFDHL

O=C(CN1C(=O)NC2(CCCc3ccccc32)C1=O)N1CCc2ccccc2C1 (stereo unspecified)
IC50 [1]: 13.5 µM (active)

CCn1c(Cc2ccccc2)nnc1SCC(=O)NC(C)(C)C
AC50 [2]: 14.1 µM (inconclusive)
AC50 [3]: 12.6 µM (inconclusive)

CCCCCC1CCC(C(=O)NN=C(S)NCC)CC1 (stereo unspecified)
AC50 [4]: 15.8 µM (inconclusive)
AC50 [5]: 12.6 µM (inconclusive)
AC50 [3]: 1.78 µM (inconclusive)

O=C(C[n+]1cccc2ccccc21)c1ccc(Br)cc1
IC50 [1]: 13.2 µM (active)

CN(Cc1ccccc1)S(=O)(=O)c1ccc(NC(=S)NC(=O)C(C)(C)C)cc1
IC50 [6]: > 66 µM (inactive)
IC50 [7]: > 66 µM (inactive)

COc1ccc(CNc2nc(-c3cccc(C#N)c3)nc3ccccc23)c(OC)c1
AC50 [2]: 1.58 µM (inconclusive)
AC50 [4]: 3.98 µM (inconclusive)
AC50 [3]: 1 µM (inconclusive)

O=C1CN=C(Nc2ccc(Cl)cc2)N1c1ccccc1
AC50 [4]: 20 µM (inconclusive)
AC50 [5]: 14.1 µM (inconclusive)
AC50 [8]: 14.1 µM (inconclusive)
AC50 [3]: 0.00562 µM (inconclusive)

NC(=O)CN1CCN(c2nc(-c3ccc(F)cc3)cs2)CC1
AC50 [8]: 14.1 µM (inconclusive)
AC50 [3]: 6.31 µM (inconclusive)

CC(C)NCCCOc1ccc(Cl)cc1Br
AC50 [3]: 4.47 µM (inconclusive)

O=C(COc1ccccc1-c1ccccc1)NNC(=O)NC1CCCCC1
EC50 [9]: > 120 µM (not active)
EC50 [10]: > 120 µM (not active)
EC50 [11]: > 120 µM (not active)
IC50 [1]: 15.8 µM (active)

COCCn1c(=O)c(-c2cc(F)cc(F)c2)nc2cnc(Oc3ccccc3)nc21
AC50 [2]: 39.8 µM (inconclusive)
AC50 [8]: 20 µM (inconclusive)
AC50 [3]: 20 µM (inconclusive)

C=CCSc1nc2c(c(=O)[nH]c(=O)n2C)n1C(C)C
IC50 [6]: > 66 µM (inactive)
IC50 [7]: > 66 µM (inactive)

O=C(Nc1cccc([N+](=O)[O-])c1)NC1CCCCCCC1
IC50 [12]: 14.8 µM (active)
IC50 [13]: 15.2 µM (active)

O=C(NC(=S)N1C[C@H]2C[C@H](C1)c1cccc(=O)n1C2)c1ccc(Cl)cc1
IC50 [6]: > 66 µM (inactive)
IC50 [7]: > 66 µM (inactive)

COc1cc(N(C)C)c([N+](=O)[O-])cc1C(=O)NC(C)CNc1ccc([N+](=O)[O-])cc1Cl (stereo unspecified)
IC50 [12]: 6.26 µM (active)
IC50 [13]: 5.79 µM (active)

CCC(=O)Nc1ccc(Cl)c(NC(=S)NC(=O)COc2ccccc2)c1
IC50 [6]: > 66 µM (inactive)
IC50 [7]: > 66 µM (inactive)

CSCC[C@H](NC(=O)c1ccc(Cl)c([N+](=O)[O-])c1)c1nc2ccccc2[nH]1
IC50 [12]: 11.1 µM (active)
IC50 [13]: 6.14 µM (active)

COC(=O)c1cc(OC)c(OC)cc1NC(=O)CSc1ccc(C)cc1
AC50 [3]: 7.94 µM (inconclusive)

COc1cccc(NC(=O)CCC(=O)Nc2ccc3nc(N4CCOCC4)cc(C)c3c2)c1
EC50 [9]: > 120 µM (not active)
EC50 [10]: > 120 µM (not active)
EC50 [11]: > 120 µM (not active)

Cc1cc(C)c[n+](-c2[n-]c(=O)sc2C=NNC(=O)c2cccnc2)c1
IC50 [6]: > 66 µM (inactive)
IC50 [7]: 59.7 µM (inactive)

CN(Cc1ccc(Cl)cc1)C(=O)COC(=O)CSc1ccc([N+](=O)[O-])cc1
IC50 [6]: > 66 µM (inactive)
IC50 [7]: > 66 µM (inactive)

CC1CCCCC1NC(=O)Cn1nnc(-c2ccc(Cl)cc2)n1 (stereo unspecified)
IC50 [1]: 6.61 µM (active)

CC(C)c1ccc(CSc2ccc(S(=O)(=O)N3CCOCC3)cn2)cc1
IC50 [12]: 5.98 µM (active)
IC50 [13]: 7.91 µM (active)

CCNc1ncc2nc(-c3cccs3)c(=O)n(CCC#N)c2n1
AC50 [3]: 12.6 µM (inconclusive)

NC(=S)Nc1ccc(S(=O)(=O)c2ccc(NC(N)=S)cc2)cc1
IC50 [6]: > 66 µM (inactive)
IC50 [7]: > 66 µM (inactive)

CCOc1cc(N2CCOCC2)c(OCC)cc1NC(=O)Cc1ccccc1
IC50 [1]: 13.2 µM (active)

CCc1ccc(C(=O)COC(=O)c2cc([N+](=O)[O-])ccc2N2CCOCC2)cc1
IC50 [12]: 1.75 µM (active)
IC50 [13]: 2.16 µM (active)

CC1=C(C(=O)N2CCCCCC2)C2(CCC(C)CC2)OC1=O (stereo unspecified)
AC50 [5]: 0.0158 µM (inconclusive)
AC50 [3]: 28.2 µM (inconclusive)

CC(C)c1ccc(S(=O)(=O)N2CCC(C(=O)NCC3(N(C)C)CCCCC3)CC2)cc1
IC50 [1]: 12.6 µM (active)

CC(=O)OCCOCn1cnn2c(=O)c(Br)c(C)nc12
IC50 [1]: 13.5 µM (active)

O=C1C=CC2OC(c3ccccc3)C(O)C2O1 (stereo unspecified)
GI50 [14]: 1.16 µM (inactive)
GI50 [15]: 4.6 µM (inactive)
GI50 [16]: 1.56 µM (inactive)

CSCSCC(CO)NC(=O)/C=C\c1c(C)[nH]c(=O)[nH]c1=O (stereo unspecified)
GI50 [14]: 57.4 µM (inactive)
GI50 [15]: 11.1 µM (inactive)
GI50 [16]: 23.1 µM (inactive)

COC(=O)[C@@H](O)[C@](O)(CCC(C)C)C(=O)O[C@@H]1C(OC)=C[C@]23CCCN2CCc2cc4c(cc2[C@H]13)OCO4
GI50 [14]: 2.29 µM (inactive)
GI50 [15]: 0.682 µM (active)
GI50 [16]: 0.247 µM (active)

N/C(=N\O)N/N=C\c1ccccc1O
GI50 [14]: 1.54 µM (inactive)
GI50 [15]: 3.91 µM (inactive)
GI50 [16]: 1.66 µM (inactive)

CC(=O)OC1C=C(C=O)C(O)(C=O)C2(C)CCCC(C)(C)C12 (stereo unspecified)
GI50 [14]: 0.322 µM (active)
GI50 [15]: 1.36 µM (inactive)
GI50 [16]: 0.142 µM (active)

O=C1C(Br)=CC2(C=C1Br)CCNC1=C2C2=NCCc3c[nH]c(c32)C1=O
GI50 [14]: 0.0162 µM (active)
GI50 [15]: 0.168 µM (active)
GI50 [16]: 0.0146 µM (active)

CCCCCCCCC1=CCC(CN(C)C)C1=O (stereo unspecified)
GI50 [14]: 2.92 µM (inactive)
GI50 [15]: 17.6 µM (inactive)
GI50 [16]: 4.29 µM (inactive)

Cc1ccc(S(=O)(=O)N(C)C[C@@H]2Oc3c(NC(=O)c4ccc(-c5nccs5)cc4)cccc3C(=O)N([C@@H](C)CO)C[C@@H]2C)cc1
AC50 [17]: 18.3 µM (active)

CCSc1nc(COC(=O)NC)c(COC(=O)NC)n1C
GI50 [14]: > 100 µM (inactive)
GI50 [15]: > 100 µM (inactive)
GI50 [16]: 67.6 µM (inactive)

CCN(CCCl)CCNc1c2ccccc2nc2ccc(OC)cc12
GI50 [14]: 0.29 µM (active)
GI50 [15]: 0.647 µM (active)
GI50 [16]: 0.0757 µM (active)

CC(=O)N(C)c1ccc(Nc2cc(C)nc3ccc4nc[nH]c4c23)cc1 [ACODAZOLE HYDROCHLORIDE]
GI50 [14]: 37 µM (inactive)
GI50 [15]: 4.9 µM (inactive)
GI50 [16]: 4.5 µM (inactive)

CNC(=O)CSP(=S)(OC)OC [DIMETHOATE]
IC50 [6]: > 66 µM (inactive)
IC50 [7]: > 66 µM (inactive)

CC(C)=CCc1c(O)ccc2ccc(=O)oc12 [OSTHENOL]
GI50 [14]: 50 µM (inactive)
GI50 [15]: 59.7 µM (inactive)
GI50 [16]: 42.7 µM (inactive)

NNCCc1ccccc1 [PHENELZINE]
AC50 [3]: 158 nM (inconclusive) and 10 µM (inconclusive)
